Measurements published in patent publication US20060233861A1, “Modulation of atp production or content in the hypothalamus” (priority 2003, published 2006).

Experiments:
Na/K ATPase [1] = assay: 86-Rubidium uptake into incubated rat hypothalamic slice punches; format: cell-based; details: for effect of agent alone on 86Rb uptake: Compound (1) at up to 5000 nM
Experimental: The whole brain was removed from the skull and inserted into a Precision Brain Slicer (RMB 3000C, Braintree Scientific INC.). As scaled from the rear, a brain slice was removed between the 8 and 10 scale (about 2 mm). The medial-basal hypothalamus was punched using a round mouth #18 1 mm diameter needle with attached syringe. The tissue included most of arcuate nucleus of the hypothalamus and a small part of nucleus paremamillaris ventralis. The tissue was pushed into 0.5 ml DMEM medium in a 24 well cell culture plate. Following preincubation at 37° C., in air/5% CO2 for 30 min., concentrations of test Compound were added for an additional 30 min. Finally, 86-rubidium- (^86Rb) 1 μCi was added to each well for 20 minutes at room temperature. The tissue was then transferred to tubes with a protein dialysis solution to dissolve protein. Five (5) ml scintillation liquid was added to each tube and the photoemissions determined in a β-counter (Beckman).

ouabain receptors = assay: 3H-ouabain binding in cultured fetal rat hypothalamic neurons (whole cell); details: whole cell hypothalamic culture
Description: This binding was unaffected and in some experiments appeared to actually increase during exposure to Compound (1). Compound (2) was not tested.

Na/K ATPase [2] = assay: 86-Rubidium uptake in cultures of fetal rat hypothalamic neurons; format: cell-based; details: for effect on ouabain inhibition of 86-Rb uptake: preincubated 10 min, then ouabain 1000 nM
rats (food intake) [3] = assay: Effect of ICV or i.p. administration of test compounds on rat food intake
[4] = system: fetal rat hypothalamic neurons; assay: ATP content in cultured fetal hypothalamic neurons (Enliten ATP Assay); format: cell-based; details: for increase of ATP content: 30 minute incubation in vitro
[5] = system: ATP-sensitive K+ channels; assay: Electrophysiological recordings in hypothalamic slices (glucose sensitive neurons); format: cell-based; details: hypothalamic slice recordings
Na/K ATPase [6] = assay: Competitive binding / Na/K ATPase activity in membrane concentrates from brain, kidney and gut; format: biochemical
[7] = system: hypothalamus (ATP content); details: rats treated with supraphysiological doses of triiodothyronine (T3), ICV; cited from earlier work
[8] = system: hypothalamus (ATP content); assay: ATP content in hypothalamic slice punches after ICV injection in rats; format: in vivo, rat; details: rats on normal (ad lib) diet, ICV 40 nmoles, punches 24 hours later, P<0.05
Experimental: In several experiments, to determine subsequent effects on food intake, hypothalamic Na/K ATPase activity or ATP content, the animals were administered the test compounds by ICV injection. Animals were anesthetized with sodium barbiturate (6 mg/100 g BW). Under stereotaxic fixation (David Kopf), with aseptic technique, a 25 ul Hamilton micro syringe (Reno, Nev.) needle tip was inserted according to the published references: 2 mm lateral to the middline at the bregma; −4.3 mm to the bregma; 5.5 mm deep to the dura; −1.3 mm with the shaft inclined medially at 13° […]. to the vertical. […] All injections were calculated and expressed in absolute amount, i.e. nmoles. […]
Following extraction, the content of ATP in these slice punches was measured by the Enliten™ ATP Assay system (see below). […]
As described above, hypothalamic tissues after removal or removal/incubation were transferred to 1.5 ml Eppendorf tubes with 50 μl TCA (5%) and immediately homogenated with a plastic homogenizer. […] ATP was measured according to the kit protocol. […] Light photons were measured by a luminometer and were compared with an ATP standard curve to calculate ATP concentration. […] ATP content is expressed as moles per mg protein for tissue samples, moles per 5 mg tissue for section punches, and as moles per neuron culture well; expressed in appropriate quantitative units for each experiment. […]

rats (food intake) [9] = details: ICV, depending on dose

| Structure (SMILES) | effect of agent alone on 86Rb uptake (Na/K ATPase [1]) | effect on tritiated (3H) ouabain binding (ouabain receptors) | IC50 (Na/K ATPase [2]; fetal rat hypothalamic neuron culture, 10 to 100,000 nM tested, approximate, read-out: IC50 for 86Rb uptake) [µM] | effect of agent alone on 86-Rb uptake (Na/K ATPase [2]; hypothalamic neuron culture) | behavioural effect observed (rats (food intake) [3]; ICV, approximately 8 nmoles in 4 μl DMSO) | effect on food intake (rats (food intake) [3]; ICV, approximately 8 nmoles in 4 μl DMSO (results not shown)) | effect on ATP content ([4]; hypothalamic culture, ouabain alone) | effect on ouabain inhibition of 86-Rb uptake (Na/K ATPase [2]; hypothalamic neuron culture) | effect on subsequent 24 hour food intake (rats (food intake) [3]; ICV, approximately 40 nmoles in DMSO) | effect on the inhibitory effect of ouabain on 86Rb uptake (Na/K ATPase [1]; with ouabain) | concentrations at which reduction of ouabain inhibition of 86-Rb uptake was observed (Na/K ATPase [2]; hypothalamic neuron culture, ouabain 1000 nM) [nM] | effect on food intake after i.p. injection (rats (food intake) [3]; 20 nmoles administered once i.p. (data not shown)) | effect on food intake at lowest dose (rats (food intake) [3]; ICV, 0.04 nmoles) | effect on ATP-sensitive K+ channels [5] | increase of ATP content ([4]; 500 nM alone) | increase of ATP content ([4]; 500 nM in combination with ouabain) | binding to / inhibition of activity of membrane extracts enriched with Na/K ATPase (Na/K ATPase [6]) | effect on apparent hypothalamic ATP deficit [7] | effect on hypothalamic ATP content [8] | duration of effect on food intake (rats (food intake) [9]) [h] |
| --- | --- | --- | --- | --- | --- | --- | --- | --- | --- | --- | --- | --- | --- | --- | --- | --- | --- | --- | --- | --- |
| C[C@@H]1O[C@@H](O[C@H]2C[C@@H](O)[C@]3(CO)[C@H]4[C@H](O)C[C@]5(C)[C@@H](C6=CC(=O)OC6)CC[C@]5(O)[C@@H]4CC[C@]3(O)C2)[C@H](O)[C@H](O)[C@H]1O [Ouabain, ouabain, reference compound] | inhibited | specifically inhibited | […] | […] | motor hyperactivity | no consistent effect on food intake | had no effect or slightly reduced ATP content |  |  |  |  |  |  |  |  |  |  |  |  |  |
| C/C=C(\C)C(=O)O[C@@H]1CC2C(CC=C3C[C@@H](O)CC[C@@]32C)[C@@]2(O)CC[C@H](C(C)=O)[C@@]12C (stereo partly drawn) [Compound (2)] |  |  |  |  |  |  |  | had no effect | altered subsequent 24 hour food intake |  |  |  |  |  |  |  |  |  |  |  |
| C/C=C(\C)C(=O)O[C@@H]1CC2C(CC=C3C[C@@H](OC4CC(OC)C(OC5CC(OC)C(OC6OC(C)C(O)C(OC)C6O)C(C)O5)C(C)O4)CC[C@@]32C)[C@@]2(O)CC[C@H](C(C)=O)[C@@]12C (stereo partly drawn) [Compound (1), tri-rhabinoside, 14-0H, 12-tigloyl pregnane steroidal glycoside] | had no effect | unaffected |  | had no effect |  |  |  | significantly reduced the inhibition |  | almost completely blocked | 5 to 500 | did not significantly reduce food intake | significant but relatively minor effect | activate (close) | up to 2 fold | up to 2 fold | does not bind to or inhibit activity | partially reversed | increased hypothalamic ATP content | 24 to 48 |
